Data as given in patent US11866712B2, “System based on the reassembly of GFP for studying the trans-translational activity and identifying new antibiotics” (UNIVERSITE DE RENNES 1, priority 2018, dated 2024).
“Also recorded” adds a separate entry of the source.

Columns and labels:
[1] = test system: transcription and translation; experiment: in vitro translation control: production of fluorescent sfalaGFP from PCR product in PURExpress kit; assay type: biochemical, Escherichia coli; details: KKL-35 10 μM added to the sfalaGFP PCR product; FIG. 3(A)
Experimental: (§1) In order to evaluate the tmRNA labeling activity in vitro, the present inventors used a reconstituted cell-free protein synthesis system (PURE for Protein Synthesis Using Recombinant Elements) (Shimizu et al., Nature Biotechnol., 2001, 19(8): 751-755). The experiments were carried out using the PURExpress® commercial kit (sold by New England Biolabs) containing all the purified components of Escherichia coli that are required to carry out both the transcription and the translation. In order to convert this kit into an in vitro fluorescent trans-translation system, the inventors added the components required for the trans-translation: tmRNAGFP11, the SmpB protein, and a non-stop DNA sequence encoding the first 10 domains of sfGFP (see Materials and Methods section).
Translation and trans-translation assays. The in vitro translation reactions were carried out according to the recommendations of New England Biolabs. […]
Analysis by fluorescence. After overnight incubation at 37° C., the reaction volume was adjusted to 125 μL and transferred into a cuvette for analysis by fluorescence using an LS 55 fluorescence spectrometer (Perkin Elmer). The fluorescence intensity at 510 nm of the trans-translated sfalaGFP was determined using an excitation at 485 nm.
The inventors first of all confirmed that there was no fluorescence generated by the components of the PURExpress® kit (see FIG. 3). […]

trans-translation = experiment: in vitro trans-translation assay (PURExpress kit, tmRNAGFP11, SmpB, sfGFP1-10 nonstop; GFP fluorescence); assay type: biochemical, Escherichia coli; details: concentration of 10 μM; FIG. 3(B)
Experimental: as §1
Translation and trans-translation assays. The in vitro translation reactions were carried out according to the recommendations of New England Biolabs. The in vitro trans-translation assays were carried out in various steps using the PURExpress® protein synthesis kit (New England Biolabs). […]
Analysis by fluorescence. After overnight incubation at 37° C., the reaction volume was adjusted to 125 μL and transferred into a cuvette for analysis by fluorescence using an LS 55 fluorescence spectrometer (Perkin Elmer). The fluorescence intensity at 510 nm of the trans-translated sfalaGFP was determined using an excitation at 485 nm. […]

translation = details: known from Ramadoss et al., PNAS USA, 2013; cited from earlier work

## O=C(Nc1nnc(-c2ccc(F)cc2)o1)c1ccc(Cl)cc1 [KKL-35]
[1]
  inhibition of transcription and of translation (anti-transcription and anti-translation activity): No inhibition; also recorded: absence
trans-translation
  activity against the trans-translation: slight activity
translation
  anti-translation activity: strong
